The values that follow come from ChEMBL document CHEMBL1201862, “PubChem BioAssay data set” (2004).

Among the test systems are 786-0; A549; ACHN; CCRF-CEM; DU-145; HCT-15; Hs-578T; IGROV-1; KM12; M14; MCF7; MDA-MB-231; Malme-3M; NCI/ADR-RES; OVCAR-3; RPMI-8226; SK-MEL-28; SNB-75; UO-31; HL-60.
What all share (experiment): NCI-60 cell line screen, 48 h

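Method: 48-hour compound exposure of cells in 96-well plates, five concentrations, linear interpolation of endpoints. GI50 = concentration required for 50% inhibition of growth.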 Calls of active or inactive are those of the source. No stated cut-off is given here; in the data, active = GI50 up to about 1.1 µM and inactive = higher.

Take `O=C(/C=C/c1ccccc1)OCC1=C[C@@H](O)[C@@H]2C=CO[C@@H](OC3OC(CO)C(O)C(O)C3O)[C@H]12` (some centres undefined): the GI50 is > 100 µM (inactive) with 786-0; > 100 µM (inactive) with A549; > 100 µM (inactive) with ACHN; > 100 µM (inactive) with CCRF-CEM; > 100 µM (inactive) in the assay with DU-145; more than 100 µM in the assay on HCT-15. In addition, the GI50 in the assay on Hs-578T, with IGROV-1, with KM12, with M14, in the assay with MCF7 and with MDA-MB-231 was > 100 µM (inactive) throughout. In addition, the GI50 in the assay with Malme-3M, in the assay with NCI/ADR-RES, in the assay on OVCAR-3, in the assay on RPMI-8226, in the assay on SK-MEL-28 and with SNB-75 was > 100 µM (inactive) throughout. Besides, the GI50 in the assay on UO-31 is > 100 µM (inactive).

In the case of `Cc1cc(C)nc(NC(=O)COc2ccc(Cl)cc2)c1`, the GI50 with 786-0 was > 100 µM (inactive); in the assay on A549 it was > 100 µM (inactive); with ACHN, > 100 µM (inactive); with DU-145 it was > 100 µM (inactive); in the assay with HCT-15, more than 100 µM; in the assay with Hs-578T, > 100 µM (inactive). Also, the GI50 is 75.3 µM (inactive) in the assay with IGROV-1; > 100 µM (inactive) in the assay with KM12; > 100 µM (inactive) in the assay with M14; 85.7 µM (inactive) in the assay with MCF7; > 100 µM (inactive) with MDA-MB-231; > 100 µM (inactive) in the assay on Malme-3M. Also, the GI50 is 66.4 µM (inactive) in the assay on NCI/ADR-RES; > 100 µM (inactive) in the assay with OVCAR-3; 74.5 µM (inactive) with RPMI-8226; > 100 µM (inactive) in the assay with SK-MEL-28; > 100 µM (inactive) with SNB-75.

Consider `N#Cc1c(N)n(C2OC(CO)C(O)C2O)c2ncnc(N)c12` (centres undefined), for which the GI50 in the assay with 786-0 was 0.0671 µM (active); with A549 it was 0.119 µM (active); in the assay with ACHN, 0.0312 µM (active); in the assay on CCRF-CEM, 0.025 µM (active); in the assay with DU-145 it was 0.112 µM (active); with HCT-15 it was 0.0277 µM. For the same compound, the GI50 is 0.144 µM (active) in the assay on Hs-578T; 0.22 µM (active) in the assay with IGROV-1; 0.0417 µM (active) in the assay with KM12; 0.0617 µM (active) with M14; 0.0168 µM (active) in the assay on MCF7; 0.0364 µM (active) in the assay with MDA-MB-231. The GI50 in the assay on Malme-3M is 0.0367 µM (active); with NCI/ADR-RES, 0.0243 µM (active); in the assay with OVCAR-3, 0.029 µM (active); in the assay on RPMI-8226 it was 0.184 µM (active); in the assay on SK-MEL-28 it was 0.119 µM (active); with SNB-75, 0.0798 µM (active). In addition, in the assay with UO-31, the GI50 was 0.0847 µM (active).

Turning to `C=CC(C)(C)C(=C)C(=O)N(C)c1ccccc1I`, the GI50 was > 100 µM (inactive) in the assay with 786-0; > 100 µM (inactive) in the assay with A549; > 100 µM (inactive) with ACHN; > 100 µM (inactive) in the assay with CCRF-CEM; > 100 µM (inactive) in the assay with DU-145; more than 100 µM in the assay on HCT-15. In addition, the GI50 was 57.9 µM (inactive) in the assay on Hs-578T; > 100 µM (inactive) in the assay on KM12; > 100 µM (inactive) with M14; > 100 µM (inactive) with MCF7; > 100 µM (inactive) in the assay with MDA-MB-231; > 100 µM (inactive) in the assay with NCI/ADR-RES. The GI50 with OVCAR-3, in the assay with RPMI-8226, in the assay with SK-MEL-28, with SNB-75 and with UO-31 was > 100 µM (inactive) each time.

As for `C=C(CO)[C@H]1Oc2ccc(C(C)=O)cc2[C@@H]1O`, the GI50 with 786-0 is > 100 µM (inactive); in the assay on A549, > 100 µM (inactive); in the assay with ACHN, > 100 µM (inactive); with CCRF-CEM, > 100 µM (inactive); in the assay on DU-145, > 100 µM (inactive); in the assay on HCT-15, 80.9 µM. The GI50 in the assay on HL-60 is > 100 µM (inactive); with Hs-578T, 77.8 µM (inactive); in the assay on IGROV-1 it was > 100 µM (inactive); in the assay with KM12, > 100 µM (inactive); with M14, > 100 µM (inactive); in the assay with MCF7, > 100 µM (inactive). Besides, the GI50 was > 100 µM (inactive) with MDA-MB-231; 53.3 µM (inactive) with Malme-3M; > 100 µM (inactive) in the assay on OVCAR-3; > 100 µM (inactive) in the assay with RPMI-8226; > 100 µM (inactive) in the assay on SK-MEL-28; 95.1 µM (inactive) with SNB-75. The GI50 in the assay on UO-31 is > 100 µM (inactive).

Regarding `CCCCC(=O)OCC(=O)[C@]1(O)Cc2c(O)c3c(c(O)c2[C@@H](OC2CC(NC(=O)C(F)(F)F)C(O)C(C)O2)C1)C(=O)c1c(OC)cccc1C3=O` (some centres undefined), the GI50 with 786-0 is 0.232 µM (active); in the assay with A549, 0.194 µM (active); in the assay with ACHN it was 0.406 µM (active); with CCRF-CEM, 0.135 µM (active); with DU-145, 0.365 µM (active); in the assay with HCT-15, 1.39 µM. In addition, the GI50 in the assay on HL-60 is 0.126 µM (active); in the assay with Hs-578T, 1.73 µM (inactive); in the assay on IGROV-1 it was 0.794 µM (active); in the assay with KM12, 0.787 µM (active); in the assay on M14, 0.832 µM (active); in the assay with MDA-MB-231 it was 3 µM (inactive). Besides, the GI50 is 0.711 µM (active) in the assay with Malme-3M; 2.96 µM (inactive) with OVCAR-3; 0.181 µM (active) in the assay with RPMI-8226; 1.73 µM (inactive) with SK-MEL-28; 1.02 µM (active) in the assay on SNB-75; 1.06 µM (active) in the assay on UO-31.

Take `COc1ccc(C/C=C(\C)CCO)cc1`: the GI50 in the assay with 786-0 was > 100 µM (inactive); in the assay with A549 it was > 100 µM (inactive); with ACHN, > 100 µM (inactive); with CCRF-CEM, > 100 µM (inactive); in the assay on DU-145 it was > 100 µM (inactive); in the assay with HCT-15, more than 100 µM. Further, the GI50 in the assay with Hs-578T, in the assay on IGROV-1, in the assay on KM12, in the assay with M14, with MCF7 and in the assay with MDA-MB-231 was > 100 µM (inactive) throughout. In addition, the GI50 with NCI/ADR-RES was > 100 µM (inactive); in the assay on OVCAR-3, > 100 µM (inactive); in the assay on RPMI-8226 it was 19.7 µM (inactive); with SNB-75 it was > 100 µM (inactive); in the assay on UO-31, > 100 µM (inactive).

Take `COC(=O)CNC(=O)/C=C/[C@H](O[Si](C)(C)C(C)(C)C)[C@H](/C=C/C(=O)NCC(=O)OC)O[Si](C)(C)C(C)(C)C`: the GI50 in the assay with 786-0 was > 25 µM (inactive); with A549, > 25 µM (inactive); with ACHN, > 25 µM (inactive); with CCRF-CEM, > 25 µM (inactive); in the assay with DU-145 it was > 25 µM (inactive); in the assay with HCT-15, more than 25 µM. Besides, the GI50 in the assay with Hs-578T, with IGROV-1, with KM12, with MCF7, in the assay with MDA-MB-231 and in the assay on Malme-3M was > 25 µM (inactive) in each case. Besides, the GI50 in the assay with NCI/ADR-RES, with OVCAR-3, in the assay with RPMI-8226, in the assay with SK-MEL-28, in the assay with SNB-75 and in the assay on UO-31 was > 25 µM (inactive) throughout.
